Measurements reported in PubChem BioAssay AID248 (DTP/NCI, 2004).
Values joined by “and” are separate entries in the source; they are usually repeats but may differ in a detail not shown here. Identical values can stand only once. Toxic doses and inconclusive results are not listed. No stated cut-off is given here; in the data, active means T/C of 150% or more; inactive means T/C below 125%.

Test system: L1210 leukemia ip in BDF1 mice, survival T/C
Experiment: NCI In Vivo Anticancer Drug Screen. Data for tumor model L1210 Leukemia (intraperitoneal) in B6D2F1 (BDF1) mice
Settings: endpoint: mean survival time, higher = longer survival
Outline: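 Tumor was transplanted into mice, which were then dosed with test compound or vehicle alone. Survival was recorded for each group, and the treated figure was expressed relative to the control figure.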

[1] = dose: 100.0 mg/kg/injection, schedule: Q01DX001 (ip), vehicle: carboxymethylcellulose (CMC)
[2] = dose: 200.0 mg/kg/injection, schedule: Q01DX001 (ip), vehicle: carboxymethylcellulose (CMC)
[3] = dose: 400.0 mg/kg/injection, schedule: Q01DX001 (ip), vehicle: carboxymethylcellulose (CMC)
[4] = dose: 100.0 mg/kg/injection, schedule: Q01DX009 (ip), vehicle: carboxymethylcellulose (CMC)
[5] = dose: 100.0 mg/kg/injection, schedule: Q04DX002 (ip), vehicle: carboxymethylcellulose (CMC)
[6] = dose: 100.0 mg/kg/injection, schedule: Q04DX003 (ip), vehicle: carboxymethylcellulose (CMC)
[7] = dose: 200.0 mg/kg/injection, schedule: Q01DX009 (ip), vehicle: carboxymethylcellulose (CMC)
[8] = dose: 200.0 mg/kg/injection, schedule: Q04DX002 (ip), vehicle: carboxymethylcellulose (CMC)
[9] = dose: 200.0 mg/kg/injection, schedule: Q04DX003 (ip), vehicle: carboxymethylcellulose (CMC)
[10] = dose: 400.0 mg/kg/injection, schedule: Q01DX009 (ip), vehicle: carboxymethylcellulose (CMC)
[11] = dose: 400.0 mg/kg/injection, schedule: Q04DX002 (ip), vehicle: carboxymethylcellulose (CMC)
[12] = dose: 50.0 mg/kg/injection, schedule: Q01DX001 (ip), vehicle: saline
[13] = dose: 100.0 mg/kg/injection, schedule: Q01DX001 (ip), vehicle: saline
[14] = dose: 200.0 mg/kg/injection, schedule: Q01DX001 (ip), vehicle: saline
[15] = dose: 400.0 mg/kg/injection, schedule: Q01DX001 (ip), vehicle: saline

Measured: T/C

O=C(O)C(Br)C(Br)C(=O)O (centres undefined)
inactive: dose: 100.0 mg/kg/injection, schedule: Q04DX002 (ip), vehicle: saline 92 % of control | dose: 100.0 mg/kg/injection, schedule: Q04DX003 (ip), vehicle: Klucel (hydroxypropylcellulose) (HPC) 97 % of control | dose: 200.0 mg/kg/injection, schedule: Q04DX002 (ip), vehicle: saline 100 % of control | dose: 200.0 mg/kg/injection, schedule: Q04DX003 (ip), vehicle: Klucel (hydroxypropylcellulose) (HPC) 103 % of control | dose: 400.0 mg/kg/injection, schedule: Q04DX003 (ip), vehicle: Klucel (hydroxypropylcellulose) (HPC) 95 % of control

O=C(c1ccccc1)c1cccc2ccccc12
inactive: dose: 50.0 mg/kg/injection, schedule: Q04DX002 (ip), vehicle: Klucel (hydroxypropylcellulose) (HPC) 109 % of control | dose: 100.0 mg/kg/injection, schedule: Q04DX002 (ip), vehicle: Klucel (hydroxypropylcellulose) (HPC) 105 % of control | dose: 200.0 mg/kg/injection, schedule: Q04DX002 (ip), vehicle: Klucel (hydroxypropylcellulose) (HPC) 105 % of control | dose: 400.0 mg/kg/injection, schedule: Q04DX002 (ip), vehicle: Klucel (hydroxypropylcellulose) (HPC) 109 % of control

CC(C)CCc1nc2c(c(=O)n(C)c(=O)n2C)n1C
inactive: dose: 50.0 mg/kg/injection, schedule: Q01DX001 (ip), vehicle: carboxymethylcellulose (CMC) 116 % of control | [1] 103 % of control | [2] 103 % of control | [3] 103 % of control

CCC1/C=C/C=C/CC(C)C(O)C(C)(O)C(=O)C(C)C(O)C(C)C(=O)C(C)C(O)C(C)/C=C/C(=O)OC2C(C)C(CC1)OC1(OC(CC(C)O)C(C)CC1=O)C2C (centres undefined) (tested in a mixture with another compound)
inactive: dose: 0.08 mg/kg/injection, schedule: Q01DX009 (ip), vehicle: saline 102 % of control | dose: 0.16 mg/kg/injection, schedule: Q01DX009 (ip), vehicle: saline 103 % of control | dose: 0.16 mg/kg/injection, schedule: Q04DX003 (ip), vehicle: saline 117 % of control | dose: 0.31 mg/kg/injection, schedule: Q01DX009 (ip), vehicle: saline 102 % of control | dose: 0.32 mg/kg/injection, schedule: Q01DX001 (ip), vehicle: saline 118 % of control | dose: 0.32 mg/kg/injection, schedule: Q01DX009 (ip), vehicle: saline 113 % of control | dose: 0.32 mg/kg/injection, schedule: Q04DX003 (ip), vehicle: saline 117 % of control | dose: 0.44 mg/kg/injection, schedule: Q01DX Z (ip), vehicle: other 114 % of control | dose: 0.44 mg/kg/injection, schedule: Q01DX Z (ip), vehicle: saline 100 % of control | dose: 0.47 mg/kg/injection, schedule: Q01DX009 (ip), vehicle: saline with Tween-80 120 % of control | dose: 0.47 mg/kg/injection, schedule: Q01DX009 (ip), vehicle: saline 101 % of control | dose: 0.63 mg/kg/injection, schedule: Q01DX009 (ip), vehicle: saline 104 % of control | dose: 0.66 mg/kg/injection, schedule: Q01DX Z (ip), vehicle: other 122 % of control | dose: 0.66 mg/kg/injection, schedule: Q01DX Z (ip), vehicle: saline 96 % of control | dose: 0.7 mg/kg/injection, schedule: Q01DX009 (ip), vehicle: saline 102 % of control | dose: 0.8 mg/kg/injection, schedule: Q01DX Z (ip), vehicle: methylcellulose (MC) 110 % of control | dose: 1.0 mg/kg/injection, schedule: Q01DX Z (ip), vehicle: saline 109 % of control and 116 % of control | dose: 1.2 mg/kg/injection, schedule: Q01DX Z (ip), vehicle: methylcellulose (MC) 106 % of control | dose: 1.25 mg/kg/injection, schedule: Q01DX009 (ip), vehicle: saline 102 % of control | dose: 1.5 mg/kg/injection, schedule: Q01DX Z (ip), vehicle: other 115 % of control | dose: 1.5 mg/kg/injection, schedule: Q01DX Z (ip), vehicle: saline 102 % of control and 118 % of control | dose: 1.8 mg/kg/injection, schedule: Q01DX Z (ip), vehicle: methylcellulose (MC) 106 % of control | dose: 2.5 mg/kg/injection, schedule: Q01DX009 (ip), vehicle: saline 96 % of control | dose: 2.6 mg/kg/injection, schedule: Q01DX001 (ip), vehicle: saline 112 % of control | dose: 2.7 mg/kg/injection, schedule: Q01DX Z (ip), vehicle: methylcellulose (MC) 107 % of control | dose: 4.0 mg/kg/injection, schedule: Q01DX001 (ip), vehicle: saline 117 % of control | dose: 4.0 mg/kg/injection, schedule: Q01DX Z (ip), vehicle: methylcellulose (MC) 102 % of control | dose: 5.0 mg/kg/injection, schedule: Q01DX009 (ip), vehicle: saline 110 % of control | dose: 6.0 mg/kg/injection, schedule: Q01DX001 (ip), vehicle: saline 123 % of control | dose: 8.0 mg/kg/injection, schedule: Q01DX Z (ip), vehicle: methylcellulose (MC) 92 % of control | dose: 10.0 mg/kg/injection, schedule: Q01DX009 (ip), vehicle: saline 124 % of control

O=C(/C=C/c1ccccc1)NC(=S)Nc1ncccn1
inactive: [4] 93 % of control and 96 % of control | [5] 96 % of control and 104 % of control | [6] 94 % of control | [7] 92 % of control and 96 % of control | [8] 96 % of control and 98 % of control | [9] 91 % of control | [10] 96 % of control and 104 % of control | [11] 96 % of control and 91 % of control

N#CCN1CCOCC1
inactive: dose: 25.0 mg/kg/injection, schedule: Q01DX009 (ip), vehicle: saline 122 % of control | dose: 50.0 mg/kg/injection, schedule: Q01DX009 (ip), vehicle: saline 101 % of control | dose: 100.0 mg/kg/injection, schedule: Q01DX009 (ip), vehicle: saline 97 % of control and 98 % of control | dose: 100.0 mg/kg/injection, schedule: Q04DX003 (ip), vehicle: saline 103 % of control | dose: 200.0 mg/kg/injection, schedule: Q01DX009 (ip), vehicle: saline 110 % of control | dose: 200.0 mg/kg/injection, schedule: Q04DX003 (ip), vehicle: saline 97 % of control

O=c1ccc(=O)n(CCc2ccccn2)[nH]1
inactive: [12] 97 % of control | [13] 97 % of control | [14] 94 % of control | [15] 97 % of control

O=C(C[n+]1ccccc1Br)c1cccc2ccccc12
inactive: dose: 9.38 mg/kg/injection, schedule: Q01DX001 (ip), vehicle: other 103 % of control

O=c1ccn(C2CCCO2)c(=O)[nH]1 (centres undefined)
inactive: [12] 105 % of control | [13] 109 % of control | [14] 100 % of control | [15] 103 % of control

CC(=O)C1(O)CCC2C3CC=C4CC(O)CCC4(C)C3CCC21C (centres undefined)
inactive: [1] 102 % of control | [4] 87 % of control and 90 % of control | [5] 98 % of control and 100 % of control | [6] 97 % of control | [2] 94 % of control | [7] 96 % of control and 97 % of control | [8] 100 % of control and 110 % of control | [9] 98 % of control | [3] 98 % of control | [10] 93 % of control and 94 % of control | [11] 97 % of control and 100 % of control | dose: 400.0 mg/kg/injection, schedule: Q04DX003 (ip), vehicle: carboxymethylcellulose (CMC) 88 % of control
